Results from patent US12569534B2, “Therapeutic nanoparticles by coacervate complexation and their use for treating bacteria” (priority 2018, dated 2026).

Legend:
[1] = system: E. coli; assay: MIC/MBC broth microdilution, Example 2; assay type: cell-based; details: Example 2 CS NPs
Method: (§1) Reference bacterial stains were purchased from ATCC. Clinical isolates of carbapenem-resistant bacteria were obtained from National Health Research Institutes (NHRI) and Tri-Service General Hospital (TSGH). MIC is defined as the lowest concentration of antibiotics required to inhibit the growth of bacteria. MBC is defined as the lowest concentration of antibiotics required to eradicate microorganisms. The MICs of CS and the CS NPs were determined using a broth microdilution method. Bacterial suspensions were adjusted to a turbidity of McFarland 0.5±0.05 and cultured overnight with different concentrations of CS or CS NPs. A control group without antimicrobial treatment was prepared as a reference. Following overnight incubation, solution turbidity was determined by visual inspection. Culture wells with no observable turbidity were further sub-cultured for MBC evaluation. Solutions from the clear wells were deposited onto an agar plate and cultured overnight to determine the MBCs.
(§2) To evaluate the antibacterial efficacy of the CS NPs of this study, their MIC and MBC were assessed against 5 reference bacterial strains and 20 clinical isolates of carbapenem-resistant A. baumannii, E. coli, K. pneumoniae, and P. aeruginosa according to the procedures set forth in EXAMPLE 1. Reference bacterial stains were purchased from ATCC. Carbapenem-resistant clinical isolated were obtained from NHRI.

[2] = system: P. aeruginosa; assay: MIC/MBC broth microdilution, Example 2; assay type: cell-based, Pseudomonas aeruginosa; details: Example 2 CS NPs
Method: as §1, §2

[3] = system: A. baumannii; assay: MIC/MBC broth microdilution, Example 1; assay type: cell-based, Acinetobacter baumannii; details: Example 1 CS NPs
Method: (§3) To evaluate antibacterial efficacy of the CS NPs, their minimum inhibitory concentration (MIC) and minimum bactericidal concentration (MBC) were assessed against 5 reference bacterial strains and 39 clinical isolates of carbapenem-resistant A. baumannii, P. aeruginosa, E. coli, and K. pneumoniae.
as §1

[4] = system: E. coli; assay: MIC/MBC broth microdilution, Example 1; assay type: cell-based; details: Example 1 CS NPs
Method: as §3, §1

[5] = system: K. pneumoniae; assay: MIC/MBC broth microdilution, Example 2; assay type: cell-based, Klebsiella pneumoniae; details: Example 2 CS NPs
Method: as §1, §2

[6] = system: K. pneumoniae NHRI 1 isolate; assay: Mouse survival model of K. pneumoniae infection; assay type: in vivo; details: neutropenic Balb/c mice, lethal i.p. infection; 5 mg/kg CS or 20 mg/kg CS NPs (50% MTD) 5 hours post-infection
Method: 3 days and 1 day before infection, the mice were injected intraperitoneally with 150 and 100 mg/kg of cyclophosphamide, respectively, to induce neutropenia. K. pneumoniae NHRI 1 isolate was grown in 60 mL Mueller Hinton broth at 150 rpm (orbital shaker, Yihder TS-580) for 2.5 hours at 37° C. to reach the mid-logarithmic phase. The bacteria were then collected at 10,000×g for 10 minutes at 4° C. The bacterial pellet was resuspended in PBS. To induce K. pneumoniae intraperitoneal infection with a lethal bacterial dose, mice were infected with 1.5×10^8 CFU/mouse in […] via intraperitoneal injection. 5 hours post-infection, the infected mice were treated with 5 mg/kg CS (50% MTD), 20 mg/kg CS NPs (50% MTD), or PBS as a control.

[7] = clinical carbapenem-resistant isolate E. coli NHRI 1
[8] = clinical carbapenem-resistant isolate E. coli NHRI 2
[9] = clinical carbapenem-resistant isolate E. coli NHRI 3
[10] = clinical carbapenem-resistant isolate E. coli NHRI 4
[11] = clinical carbapenem-resistant isolate E. coli NHRI 5
[12] = clinical carbapenem-resistant isolate P. aeruginosa NHRI 1
[13] = clinical carbapenem-resistant isolate P. aeruginosa NHRI 2
[14] = clinical carbapenem-resistant isolate P. aeruginosa NHRI 3
[15] = clinical carbapenem-resistant isolate P. aeruginosa NHRI 4
[16] = clinical carbapenem-resistant isolate P. aeruginosa NHRI 5
[17] = reference strain P. aeruginosa 27853
[18] = clinical carbapenem-resistant A. baumannii NHRI 1
[19] = clinical carbapenem-resistant A. baumannii NHRI 2
[20] = clinical carbapenem-resistant A. baumannii NHRI 3
[21] = clinical carbapenem-resistant A. baumannii NHRI 4
[22] = clinical carbapenem-resistant A. baumannii NHRI 5
[23] = reference strain A. baumannii 15151
[24] = reference strain A. baumannii 17978
[25] = reference strain A. baumannii 19606
[26] = clinical carbapenem-resistant E. coli NHRI 1
[27] = clinical carbapenem-resistant E. coli NHRI 2
[28] = clinical carbapenem-resistant E. coli NHRI 3
[29] = clinical carbapenem-resistant E. coli NHRI 4
[30] = clinical carbapenem-resistant E. coli NHRI 5
[31] = clinical carbapenem-resistant E. coli TSGH 2
[32] = clinical carbapenem-resistant E. coli TSGH 4
[33] = clinical carbapenem-resistant E. coli TSGH 6
[34] = clinical carbapenem-resistant E. coli TSGH 8
[35] = clinical carbapenem-resistant E. coli TSGH 10
[36] = clinical carbapenem-resistant E. coli TSGH 14
[37] = clinical carbapenem-resistant E. coli TSGH 20
[38] = clinical carbapenem-resistant E. coli TSGH 21
[39] = clinical carbapenem-resistant isolate K. pneumoniae NHRI 1
[40] = clinical carbapenem-resistant isolate K. pneumoniae NHRI 2
[41] = clinical carbapenem-resistant isolate K. pneumoniae NHRI 3
[42] = clinical carbapenem-resistant isolate K. pneumoniae NHRI 4
[43] = clinical carbapenem-resistant isolate K. pneumoniae NHRI 5

Substance: colistin [CS]
- MBC [1, 7]: 2 µg/mL
- MIC [1, 7]: 2 µg/mL
- MBC [1, 8]: 2 µg/mL
- MIC [1, 8]: 1 µg/mL
- MBC [1, 9]: 2 µg/mL
- MIC [1, 9]: 1 µg/mL
- MBC [1, 10]: 1 µg/mL
- MIC [1, 10]: 1 µg/mL
- MBC [1, 11]: 0.5 µg/mL
- MIC [1, 11]: 0.5 µg/mL
- MBC ([1]; reference strain E. coli 25922): 2 µg/mL
- MIC ([1]; reference strain E. coli 25922): 1 µg/mL
- MBC [2, 12]: 4 µg/mL
- MIC [2, 12]: 1 µg/mL
- MBC [2, 13]: 4 µg/mL
- MIC [2, 13]: 2 µg/mL
- MBC [2, 14]: 4 µg/mL
- MIC [2, 14]: 1 µg/mL
- MBC [2, 15]: 4 µg/mL
- MIC [2, 15]: 2 µg/mL
- MBC [2, 16]: 4 µg/mL
- MIC [2, 16]: 1 µg/mL
- MBC [2, 17]: 2 µg/mL
- MIC [2, 17]: 1 µg/mL
- MBC [3, 18]: 2 µg/mL
- MIC [3, 18]: 1 µg/mL
- MBC [3, 19]: 2 µg/mL
- MIC [3, 19]: 1 µg/mL
- MBC [3, 20]: 1 µg/mL
- MIC [3, 20]: 1 µg/mL
- MBC [3, 21]: 2 µg/mL
- MIC [3, 21]: 1 µg/mL
- MBC [3, 22]: 1 µg/mL
- MIC [3, 22]: 1 µg/mL
- MBC [3, 23]: 1 µg/mL
- MIC [3, 23]: 1 µg/mL
- MBC [3, 24]: 1 µg/mL
- MIC [3, 24]: 1 µg/mL
- MBC [3, 25]: 1 µg/mL
- MIC [3, 25]: 1 µg/mL
- MBC [4, 26]: 1 µg/mL
- MIC [4, 26]: 1 µg/mL
- MBC [4, 27]: 1 µg/mL
- MIC [4, 27]: 1 µg/mL
- MBC [4, 28]: 1 µg/mL
- MIC [4, 28]: 1 µg/mL
- MBC [4, 29]: 2 µg/mL
- MIC [4, 29]: 1 µg/mL
- MBC [4, 30]: 2 µg/mL
- MIC [4, 30]: 1 µg/mL
- MBC [4, 31]: 1 µg/mL
- MIC [4, 31]: 1 µg/mL
- MBC [4, 32]: 1 µg/mL
- MIC [4, 32]: 1 µg/mL
- MBC [4, 33]: 2 µg/mL
- MIC [4, 33]: 1 µg/mL
- MBC [4, 34]: 2 µg/mL
- MIC [4, 34]: 1 µg/mL
- MBC [4, 35]: 1 µg/mL
- MIC [4, 35]: 1 µg/mL
- MBC [4, 36]: 1 µg/mL
- MIC [4, 36]: 1 µg/mL
- MBC [4, 37]: 1 µg/mL
- MIC [4, 37]: 1 µg/mL
- MBC [4, 38]: 1 µg/mL
- MIC [4, 38]: 1 µg/mL
- MBC ([4]; reference strain E. coli 25922): 2 µg/mL
- MIC ([4]; reference strain E. coli 25922): 1 µg/mL
- MBC [5, 39]: 4 µg/mL
- MIC [5, 39]: 1 µg/mL
- MBC [5, 40]: 1 µg/mL
- MIC [5, 40]: 1 µg/mL
- MBC [5, 41]: 2 µg/mL
- MIC [5, 41]: 1 µg/mL
- MBC [5, 42]: 2 µg/mL
- MIC [5, 42]: 2 µg/mL
- MBC [5, 43]: 4 µg/mL
- MIC [5, 43]: 1 µg/mL
- mice survival rate [6]: did not improve survival
